Test results as given in paper PMC3336786 (The FASEB Journal, 2012).
Where a chain is given by its changes, count along the chain named. Where “and” joins values, the source holds several entries; their conditions need not be identical. Equal values may be shown once. Read-outs that look alike come from different tables or passages of the source.

How the values were obtained:
α1V2'Aβ2γ2 = α1V2'Aβ2γ2 (Homo sapiens, UniProt P14867+P18507+P47870, V284A); format: cell-based
α1β2γ2 GABAA receptors = α1β2γ2 GABAA receptors (Homo sapiens, UniProt P14867+P18507+P47870); test: Two-electrode voltage clamp of α1β2γ2 GABAA receptors in Xenopus oocytes; format: cell-based
Chain of α1β2γ2 GABAA receptors (P14867 28-456, one chain of several): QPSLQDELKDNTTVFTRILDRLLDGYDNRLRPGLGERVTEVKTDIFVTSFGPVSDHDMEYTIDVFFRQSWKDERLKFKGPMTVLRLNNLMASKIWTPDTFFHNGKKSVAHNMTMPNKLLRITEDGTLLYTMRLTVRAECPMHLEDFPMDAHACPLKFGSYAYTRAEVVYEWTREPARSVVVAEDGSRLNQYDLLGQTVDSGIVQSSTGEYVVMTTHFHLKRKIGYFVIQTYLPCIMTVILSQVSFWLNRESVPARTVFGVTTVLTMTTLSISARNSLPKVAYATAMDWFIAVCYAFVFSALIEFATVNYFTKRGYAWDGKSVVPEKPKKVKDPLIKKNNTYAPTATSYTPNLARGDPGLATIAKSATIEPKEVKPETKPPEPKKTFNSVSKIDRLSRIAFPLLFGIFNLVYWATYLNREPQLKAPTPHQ
Chain of α1β2γ2 GABAA receptors (P18507 40-475, one chain of several): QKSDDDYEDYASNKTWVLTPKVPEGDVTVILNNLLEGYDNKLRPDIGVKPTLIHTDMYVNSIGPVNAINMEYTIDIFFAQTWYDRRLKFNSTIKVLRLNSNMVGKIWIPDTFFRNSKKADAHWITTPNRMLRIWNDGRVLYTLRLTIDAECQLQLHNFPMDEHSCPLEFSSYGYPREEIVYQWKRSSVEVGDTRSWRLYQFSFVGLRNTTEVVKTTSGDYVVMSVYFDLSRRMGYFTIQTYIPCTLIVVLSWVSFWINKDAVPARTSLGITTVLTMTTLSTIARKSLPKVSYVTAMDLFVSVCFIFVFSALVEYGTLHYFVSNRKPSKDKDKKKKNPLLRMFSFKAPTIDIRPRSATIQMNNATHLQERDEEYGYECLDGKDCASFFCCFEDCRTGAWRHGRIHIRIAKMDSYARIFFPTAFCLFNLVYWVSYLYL

RDL = target: T1, RDL (Drosophila melanogaster, UniProt P25123); format: cell-based
T1 sequence (P25123 45-606): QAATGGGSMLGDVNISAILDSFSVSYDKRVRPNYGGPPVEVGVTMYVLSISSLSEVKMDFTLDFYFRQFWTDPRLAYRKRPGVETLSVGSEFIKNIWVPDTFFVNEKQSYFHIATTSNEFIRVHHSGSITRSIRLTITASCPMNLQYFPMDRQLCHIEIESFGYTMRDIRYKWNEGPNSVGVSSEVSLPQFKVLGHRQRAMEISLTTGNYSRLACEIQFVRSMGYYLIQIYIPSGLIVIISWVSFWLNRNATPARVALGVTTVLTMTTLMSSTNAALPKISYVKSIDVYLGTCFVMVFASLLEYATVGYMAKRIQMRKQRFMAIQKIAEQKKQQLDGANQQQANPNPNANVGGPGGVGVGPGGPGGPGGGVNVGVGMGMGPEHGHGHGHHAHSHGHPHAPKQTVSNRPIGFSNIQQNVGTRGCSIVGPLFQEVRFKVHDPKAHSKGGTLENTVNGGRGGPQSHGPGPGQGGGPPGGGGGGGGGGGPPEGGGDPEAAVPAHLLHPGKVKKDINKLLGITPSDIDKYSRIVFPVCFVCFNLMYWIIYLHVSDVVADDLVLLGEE

[1] = test system: Canton-S adult D. melanogaster; test: Coated vial bioassay, wild-type; format: in vivo; settings: for LD50: coated vial
α1V2'Aβ2 = target: T2, α1V2'Aβ2 (Homo sapiens, UniProt P14867+P47870, V284A); format: cell-based
T2 sequence (P14867 28-456 V284A): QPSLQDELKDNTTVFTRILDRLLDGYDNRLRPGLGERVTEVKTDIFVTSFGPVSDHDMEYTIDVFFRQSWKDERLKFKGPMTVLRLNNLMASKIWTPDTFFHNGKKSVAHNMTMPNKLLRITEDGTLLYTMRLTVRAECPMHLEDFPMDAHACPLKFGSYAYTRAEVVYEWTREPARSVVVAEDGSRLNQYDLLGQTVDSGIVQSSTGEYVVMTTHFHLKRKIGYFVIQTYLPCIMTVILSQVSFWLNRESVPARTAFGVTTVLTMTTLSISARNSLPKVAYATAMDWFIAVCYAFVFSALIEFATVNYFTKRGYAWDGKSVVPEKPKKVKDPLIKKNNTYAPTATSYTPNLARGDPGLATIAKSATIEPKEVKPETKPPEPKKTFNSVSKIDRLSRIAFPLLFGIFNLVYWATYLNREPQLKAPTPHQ
T2 sequence (P47870 26-512): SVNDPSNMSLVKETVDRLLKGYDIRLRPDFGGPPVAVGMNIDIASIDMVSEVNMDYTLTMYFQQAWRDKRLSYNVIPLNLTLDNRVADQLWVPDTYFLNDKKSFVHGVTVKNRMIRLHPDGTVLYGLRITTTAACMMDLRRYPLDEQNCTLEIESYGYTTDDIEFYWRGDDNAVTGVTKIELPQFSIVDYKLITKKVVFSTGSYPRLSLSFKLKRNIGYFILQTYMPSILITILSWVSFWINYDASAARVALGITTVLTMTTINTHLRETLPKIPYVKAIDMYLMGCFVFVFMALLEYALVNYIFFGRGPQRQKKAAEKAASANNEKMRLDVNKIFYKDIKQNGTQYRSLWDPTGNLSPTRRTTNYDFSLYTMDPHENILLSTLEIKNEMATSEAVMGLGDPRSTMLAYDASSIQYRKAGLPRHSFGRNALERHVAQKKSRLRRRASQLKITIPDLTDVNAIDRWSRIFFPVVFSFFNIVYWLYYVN

[2] = target: T3, human α1β2 GABAA receptors (Homo sapiens, UniProt P14867+P47870); test: Two-electrode voltage clamp of α1β2 GABAA receptors in Xenopus oocytes; format: cell-based; settings: for IC50: IC50, inhibition of GABA EC50 response
T3 sequence (P14867 28-456): T2 sequence (P14867 28-456 V284A) with A257V
T3 sequence (P47870 26-512): T2 sequence (P47870 26-512)

RDLA2'V = target: T4, RDLA2'V (Drosophila melanogaster, UniProt P25123, A301V); test: cell-based; format: cell-based
T4 sequence (P25123 45-606 A301V): T1 sequence (P25123 45-606) with A257V

RDLT6'V = target: T5, RDLT6'V (Drosophila melanogaster, UniProt P25123, T305V); test: Two-electrode voltage clamp of RDLT6'V mutant receptors in Xenopus oocytes; format: cell-based
T5 sequence (P25123 45-606 T305V): T1 sequence (P25123 45-606) with T261V

[3] = test system: dieldrin-resistant (Rdl) adult D. melanogaster; test: Coated vial bioassay, dieldrin-resistant; format: in vivo; settings: flies with A2'S mutation; ginkgolides up to 5000 ppm (limited by solubility)
humans = settings: cited from earlier work
[4] = concentration-inhibition curve at GABA EC50

Chain of α1V2'Aβ2γ2 (P18507 40-475, one chain of several): as the sequence (P18507 40-475, one chain of several) above

Row | Compound | nH (Hill coefficient) (α1V2'Aβ2γ2; [4]) | IC50 (α1β2γ2 GABAA receptors) [µM] | nH (Hill coefficient) (α1β2γ2 GABAA receptors; [4]) | nH (Hill coefficient) (RDL; [4]) | LD50 ([1]; 24 h) [mg/mL] | LD50 ([1]; 48 h) [mg/mL] | LD50 ([1]; 72 h) [mg/mL] | nH (Hill coefficient) (α1V2'Aβ2; [4]) | IC50 [2] [µM] | nH (Hill coefficient) [2, 4] | nH (Hill coefficient) (RDLA2'V; [4]) | further results
1 | CC(C)(C)[C@]1(O)CC2OC(=O)CC23C(=O)OC2OC(=O)[C@H](O)C231 (stereo partly shown) [BB, bilobalide] | 1.16 ± 0.20 | 22.9 | 0.68 ± 0.10 | 0.89 ± 0.09 | 0.331 | 0.009 | 0.006 | 1.06 ± 0.10 | 9.33 | 0.85 ± 0.10 | 1.85 ± 0.21 | IC50 (α1V2'Aβ2γ2): 3.55 µM; IC50 (RDL): 0.316 µM; IC50 (α1V2'Aβ2; IC50, inhibition of GABA EC50 response): 2.04 µM
2 | C[C@@H]1C(=O)O[C@H]2C[C@@]34[C@H]5C[C@@H](C(C)(C)C)[C@]36[C@@H](OC(=O)[C@@H]6O)O[C@@]4(C(=O)O5)[C@]21O [GA, ginkgolide A] | 0.86 ± 0.10 | 38.9 | 0.49 ± 0.07 | 1.13 ± 0.18 | 0.345 | 0.063 | 0.019 | 0.87 ± 0.14 | 15.8 | 0.65 ± 0.08 | 1.48 ± 0.19 | IC50 (RDL; IC50, inhibition of GABA EC50 response, second stable level of inhibition): 0.003 µM; IC50 (RDL; IC50, inhibition of GABA-evoked RDL currents, as printed in text and Fig. 6): 0.0031 µM; IC50 (RDL; pIC50, inhibition of GABA EC50 response, second stable level of inhibition): 0.00324 µM
3 | NCCCC(=O)O [GABA, γ-aminobutyric acid, reference compound] |  |  |  |  |  |  |  |  |  |  |  | nH (Hill coefficient) (RDLT6'V; GABA concentration-response): 1.44 ± 0.29; nH (Hill coefficient) (α1V2'Aβ2γ2; GABA concentration-response): 1.10 ± 0.11; nH (Hill coefficient) (α1β2γ2 GABAA receptors; GABA concentration-response): 1.64 ± 0.16; nH (Hill coefficient) (RDL; GABA concentration-response): 1.8 and 1.80 ± 0.20; nH (Hill coefficient) (α1V2'Aβ2; GABA concentration-response): 1.14 ± 0.12; increase in GABA sensitivity, α1 2' mutation vs wild type (α1V2'Aβ2; α1V2'A-containing α1β2 and α1β2γ2 receptors): 20–50 fold; nH (Hill coefficient) ([2]; GABA concentration-response): 1.43 ± 0.18; nH (Hill coefficient) (RDLA2'V; GABA concentration-response): 2.20 ± 0.02
4 | ClC1=C(Cl)[C@]2(Cl)[C@@H]3[C@@H]4C[C@@H]([C@H]5O[C@@H]45)[C@@H]3[C@@]1(Cl)C2(Cl)Cl [dieldrin, reference compound] |  |  |  |  |  |  |  |  |  |  |  | mortality / toxicity (in words) [3]: no significant mortality up to 72 h; LD50 ([1]; 24 h, wild-type flies): 0.002 mg/mL; LD50 ([1]; 48 h, wild-type flies): 0.002 mg/mL; LD50 ([1]; 72 h, wild-type flies): 0.0017 mg/mL; mortality / toxicity (in words) ([1]; wild-type (susceptible) flies): highly effective in killing
5 | N#Cc1nn(-c2c(Cl)cc(C(F)(F)F)cc2Cl)c(N)c1[S+]([O-])C(F)(F)F (stereo not shown) [fipronil] |  |  |  |  |  |  |  |  |  |  |  | U.S. Environmental Protection Agency ranking (humans): moderately toxic
6 | ginkgolide B [GB] | 1.43 ± 0.29 |  | 0.61 ± 0.06 | 1.43 ± 0.14 | 0.171 | 0.031 | 0.010 | 1.13 ± 0.09 |  | 0.94 ± 0.06 | 1.02 ± 0.20 | nH (Hill coefficient) (RDLT6'V; concentration-inhibition curve): 1.00 ± 0.70
